Measured values reported in patent publication US7056908B2, “Pharmaceutical compositions and methods for preventing skin tumor formation and causing regression of existing tumors” (priority 1991, dated 2006).

Assays:
Assay type in all cases: cell-based, mouse
c-fos mRNA = c-fos mRNA Northern blot in primary keratinocytes; conditions: for time of maximum c-fos mRNA expression: 8 hour treatment, medium with 0.5% serum
Experimental: RNA Isolation and Northern Blot Analysis. RNA was isolated by ultracentrifugation of guanidine isothiocyanate lysates through a 5.7M cesium chloride gradient (Chirgwin, J. M. et al, “Isolation of biologically active ribonucleic acid from sources enriched in ribonuclease,” Biochemistry, 18: 5294–5299, 1979). 20 μg of total RNA was loaded per lane and electrophoresed through a 1% agarose gel containing 0.66 M formaldehyde (Davis, L. G. et al, “Basic Methods in Molecular Biology,” New York: Elsevier, 1986). RNA was blotted to reinforced nitrocellulose membrane (BA-S NC; Schleicher & Schuell, Keene, N.H.) and baked at 80° C. in a vacuum oven for 2 hours. Filter were pre-hybridized at 42° overnight in buffer containing 50% formamide as previously described (Yuspa, S. H. et al, “Expression of murine epidermal differentiation markers is tightly regulated by restricted extracellular calcium concentrations in vitro,” J. Cell Biol., 109: 1207–1217, 1989); approximately 20×10^6 dpm of probe was added and hybridization carried out overnight. The final wash performed at 65° using 0.2×SSC with 0.1% SDS. Filters were exposed to Kodak X-Omat AR film at −70° with intensifying screens. Mouse c-fos transcript was detected using a 1.2 kb Bg1 II to Sal I fragment from the Finkel-Biskis-Jinkins murine sarcoma virus sequence (Curran, T. et al, “Structure of the FBJ murine osteosarcoma virus genome: molecular cloning of the associated helper virus and the cellular homologue of the v-fos gene from mouse and human cells,” Mol. Cell. Biol., 3: 914–921, 1983). Following autoradiography, remaining probe was removed by washing in 1% glycerol in deionized water at 80° for 2 minutes (Davis, L. G. et al, “Basic Methods in Molecular Biology,” New York: Elsevier, 1986) and the filter was re-hybridized to a full-length rat glyceraldehyde phosphate dehydrogenase (GAPDH) cDNA in a pUC18 vector (Fort, P. et al, “Various rat adult tissues express only one major mRNA species from the glyceraldehydes-3-phosphate-dehydrogenase multigenic family,” Nucleic. Acids. Res., 13: 1431–1442, 1985). […]

SP-1 cells [1] = test: Epidermal transglutaminase activity in neoplastic keratinocytes; conditions: 24 hours
primary keratinocytes [2] = test: Morphological changes and detachment of primary keratinocytes; conditions: for alteration of cell morphology first detectable after: 10 nM staurosporine or 160 nM TPA, 0.05 mM Ca2+ medium
SP-1 cells [3] = test: Cornified envelope formation in SP-1 cells; conditions: 1.4 mM Ca2+ medium, 3 days
Experimental: Cornified Envelope Quantitation. Keratinocytes were analyzed for cornified envelope formation as described (Nagae, S. et al, “Effect of retinoic acid on cornified envelope formation: difference between spontaneous envelope formation in vivo or in vitro and expression of envelope competence,” J. Invest., Dermatol., 89: 51–58, 1987), with minor modifications. Floating cells were harvested by collecting culture medium from each 60 mm dish and combining with two washes using phosphate-buffered saline without Ca^2+ and Ms^+2 (PBS). Cells were pelleted for 5 minutes at 1000 rpm in a benchtop clinical centrifuge and resuspended in 100 μl of lysis buffer (2% sodium dodecyl sulfate (SDS) and 20 mM dithiothreitol in PBS). Attached cells were harvested in 250 μl lysis buffer, combined with the preparation of floating cells, and incubated at 95° for 10 minutes. The non-solubilized, intact cornified envelopes, characteristic of terminally differentiated keratinocytes, were counted using a hemocytometer (Nagae, S. et al, “Effect of retinoic acid on cornified envelope formation: difference between spontaneous envelope formation in vivo or in vitro and expression of envelope competence,” J. Invest. Dermatol., 89: 51–58, 1987).
Cornified envelope formation was also determined in cultures of staurosporine-treated neoplastic cells. […]

primary keratinocytes [4] = test: Epidermal transglutaminase activity in primary keratinocytes; conditions: 9 hours, 1.4 mM Ca2+ medium; for increase in epidermal transglutaminase activity: 8 day old cultures
Experimental: Enzyme Assays. Activity of epidermal transglutaminase was determined by measuring cross-linking of ^3H-putrescine to dimethylcasein (20). Cell lysates were incubated at […] for 10 minutes to inactivate tissue transglutaminase. Ornithine decarboxylase activity of cell lysates was determined by quantifying release of ^14CO2 from ^14C-ornithine (Sako, T. et al, “Partial parallelism and partial blockade by bryostatin 1 of effects of phorbol ester tumor promoters on primary mouse epidermal cells,” Cancer Res., 47: 5445–5450, 1987).
Epidermal transglutaminase activity is elevated in terminally differentiating keratinocytes both in vivo and in vitro. […] Control cultures (0 nM dose) were treated with 0.1% DMSO. Each point is the average of duplicate dishes with the range indicated by error bars.

SMILES | time of maximum c-fos mRNA expression (c-fos mRNA) [h] | effect on epidermal transglutaminase activity (SP-1 cells [1]; any dose ranging from 10 pM to 10 μM) | alteration of cell morphology first detectable after (primary keratinocytes [2]) [minutes] | cells rounded-up and detached from the substrate (primary keratinocytes [2]; 160 nM TPA, after 24 hours) | cornified envelope formation (SP-1 cells [3]; 160 nM TPA) | increase in epidermal transglutaminase activity (primary keratinocytes [4]; 100 and 1000 nM) [fold] | c-fos mRNA expression on combined exposure with TPA (c-fos mRNA; staurosporine added just before TPA) | maximum induction of epidermal transglutaminase activity (SP-1 cells [1]; 100 nM, 5 day old SP-1 cells) [fold] | cells detached from the substrate (primary keratinocytes [2]; 10 nM staurosporine, 24 hours) | treatment time required for a maximal response (primary keratinocytes [2]; morphological response to staurosporine) [h] | induction of cornified envelopes (SP-1 cells [3]; 10 nM staurosporine) [fold] | increase in epidermal transglutaminase activity (primary keratinocytes [4]; 10 nM) [fold] | dose to which induction of transglutaminase activity is restricted (primary keratinocytes [4]) [nM]
CCCCCCCCCCCCCC(=O)O[C@@H]1[C@@H](C)[C@@]2(O)[C@@H](C=C(CO)C[C@]3(O)C(=O)C(C)=C[C@@H]23)[C@H]2C(C)(C)[C@]12OC(C)=O [TPA, 12-0-tetradecanoylphorbol-13-acetate, reference compound] | 6 | no detectable effect | 20 | about 50% | not induced | 5 | – | – | – | – | – | – | –
CN[C@@H]1C[C@H]2O[C@@](C)([C@@H]1OC)n1c3ccccc3c3c4c(c5c6ccccc6n2c5c31)C(=O)NC4 [staurosporine] | 8 | – | 20 | – | – | – | higher expression of c-fos MRNA than TPA alone | 50 | nearly all cells | 24 | 10 | 4 | 10
